Patent US3998971A, “Novel N-vinyloxyethyl-α-methyl-β-phenethylamines for depressing appetite” (Abbott Laboratories, priority 1975, dated 1976)
“Also recorded” adds a separate entry of the source. Structures can show the parent of a compound that is named as a salt.

Experiments:
Rats [1] = test: Reduction of food consumption in rats (average daily consumption of food, ED50); format: in vivo, rat; details: for % Change From Control Value in Average Daily Consumption of Food: one hour prior to feeding; for potency compared with fenfluramine: HCl salts, summary in words; for ED50: Rattus norvegicus, po, read-out: Calculated ED50 (dose necessary to reduce the intake of food by 50%); for Relative Potency: Summary of Table II, fenfluramine = 1
Experimental: Table II records the percent change in average daily consumption of food at various dosage levels upon administration of fenfluramine or the HCl salt of the compounds of formula B in which R is Cl or CF3 as well as the dose in milligrams per killograms necessary to reduce the intake of food by 50% (ED 50). […] In this study, drugs were administered one hour prior to feeding on the fifth day of regular food intake at doses of 5, 10 and 20 milligrams per killogram, with five rats being dosed at each level and fifteen rats serving as controls.
*ED50 : dose (mg/kg) necessary to reduce the intake of food by 50%.

Acute Toxicity in Rats = format: in vivo, rat; details: rat, in vivo, po; P.O., rats; range in parentheses; read-out: Calculated LD50
Rats [2] = test: Acute Toxicity in Rats; format: in vivo, rat; details: for Mortality Ratio / toxicity relative to fenfluramine: rats; for toxicity compared with fenfluramine / toxicity relative to fenfluramine: HCl salts; for toxicity compared with fenfluramine: summary in words; for toxicity relative to fenfluramine: acute
[3] = Solubility of the salt in water; details: HCl salt
[4] = Comparison with fenfluramine: stimulating properties; format: in vivo; details: HCl salts, in words
[5] = system: rat serum lipids and glucose; test: Effect of pre-treatment on rat serum lipids and glucose induced by olive oil gavage; format: in vivo, rat (male Sprague Dawley); details: for Serum Free Fatty Acids: 20 mg/kg i.p. 2 hours before olive oil (20 ml/kg gavage); for Serum Free Fatty Acids / Serum Concentration, Cholesterol / Serum Concentration, Glucose / Serum Concentration, Glycerol / Serum Concentration, Triglycerides: blood 3 hours after oil; for Serum Concentration, Cholesterol / Serum Concentration, Glucose / Serum Concentration, Glycerol / Serum Concentration, Triglycerides: 20 mg/kg i.p. 2 hours before olive oil; for inhibiting the increase in serum triglycerides induced by olive oil gavage: % of the oil treated group; for reduction of olive oil induced increase in serum cholesterol: HCl salts; for inhibiting the increase in serum triglycerides, compared with fenfluramine: olive oil gavage
Text: The effect of pre-treatment with fenfluramine and the HCl salts of the compounds of formula B in which R is Cl or CF3 on rat serum lipids and glucose induced by olive oil gavage.
The present study was designed to compare the effects of fenfluramine, and the HCl salts of the compounds of formula B in which R=Cl and CF3 on serum glucose and lipid parameters in male rats after an olive oil meal.
Twenty-four male Sprague Dawley rats (200-250 g.) were divided into 8 groups as follows:
The animals were not fasted. Where indicated, the rats were pre-treated (intraperitoneally) with the appropriate drug for 2 hours prior to the administration of olive oil. Three hours after olive oil treatment, the animals were anesthetized with ether and blood samples obtained by cardiac puncture of the exposed heart. In each case, total treatment time was 5 hours.

Rats [6] = test: Sidman Avoidance Test in the Rat; format: in vivo, rat (male, Long Evans black-hooded); details: for effect on performance / behavior: 8 mg/kg; for effect on performance / behavior / effect on performance in Sidman Avoidance test / effect on response rate / effect on shock rate: in words; for effect on performance in Sidman Avoidance test / effect on response rate / effect on shock rate: overall
Experimental: The compound fenfluramine and the HCl salt compound of formula B in which R is Cl were examined in the Sidman Avoidance test.
Fenfluramine was run as a standard compound for comparative purposes in the study of appetite-suppressing drugs. The effects of drug-induced behavior are evaluated using the technique of Sidman Avoidance (Sidman, M., J. Comp. Physiol. Psychol. 46:253-261, 1953).
Male, Long Evans black-hooded rats (Simonsen Labs) weighing approximately 500 grams are run individually in Lehigh Valley Electronics rodent test chambers. Sessions (day/night) are 7.5 hours and 14 hours in length, respectively. The paradigm consists of two distinct temporal intervals for neither of which is the rat given any exteroceptive cues. The amount of time that elapses between shocks designates the shock-shock interval, is of a predetermined fixed length (10 seconds), and programmed by a recycling timer. When the rat responds by pressing a lever, the shock-shock interval is terminated and the response-shock interval is started. This interval is also of a predetermined fixed length (30 seconds) and programmed by a recycling timer. Both timers never operate simultaneously. The response-shock interval begins anew each time the rat responds on the lever. If the interval should elapse without the rat responding, a Shock (0.5 seconds, 10 mA) is given via the grid floor and the response-shock interval ends and the shock-shock interval begins.
Drug effects are evaluated as a precentage deviation of the rat's behavior from his baseline rate (responses/minute and shocks/minute). These effects are analyzed in 15 minute segments and an overall percentage deviation (response index and shock index) is determined.
based on an 8 mg/kg oral dose.

Mouse = test: Symtomatology Tests in the Mouse; format: in vivo; details: for stimulant effects: low doses (10-50 mg/kg)
Text: Symtomatology Tests in the Mouse

[7] = system: plasma free fatty acids and triglycerides; details: cited from earlier work
diabetics = details: cited from earlier work
[8] = 8 mg/kg oral, 7.5 hours session, 4 rats

With C=COCCNC(C)Cc1cccc(C(F)(F)F)c1 (stereo not drawn) [HCl Salt, R=CF3, N-(2-vinyloxyethyl)-α-methyl-β-(3-trifluoromethylphenyl) Phenethylamine Hydrochloride] the “% Change From Control Value in Average Daily Consumption of Food” value (shortened to “% Change From Control Value”) (Rats [1]; 5 mg/kg P.O., rats) was -22.9%, the “% Change From Control Value” value (Rats [1]; 10 mg/kg P.O., rats) was -28.3% and the “% Change From Control Value” value (Rats [1]; 20 mg/kg P.O., rats) was -76.0%. The “potency compared with fenfluramine” value (Rats [1]) was “considerably more potent”, the ED50 (Rats [1]; P.O., rats) was 17.4 mg/kg and the “Relative Potency” value (Rats [1]) was 1.2. For the same compound, the “potency relative to fenfluramine (times)” value (Rats [1]; rats, P.O.) was ~1.2 times, the LD50 (Acute Toxicity in Rats) was 1010 mg/kg and the “Mortality Ratio” value (Rats [2]; 0.5 gm/kg P.O.) was 0/6. For the same compound, the “Mortality Ratio” value (Rats [2]; 0.75 gm/kg P.O.) was 1/6, the “Mortality Ratio” value (Rats [2]; 0.85 gm/kg P.O.) was 2/6 and the “Mortality Ratio” value (Rats [2]; 1.0 gm/kg P.O.) was 4/6. The “Mortality Ratio” value (Rats [2]; 2.00 gm/kg P.O.) was 5/6, the “toxicity compared with fenfluramine” value (Rats [2]) was “considerably less toxic than fenfluramine” and the “toxicity relative to fenfluramine” value (Rats [2]) was “approximately four times less toxic than fenfluramine”. For the same compound, the solubility in water [3] was “soluble in water”, the stimulating properties [4] was “minimum stimulating properties” and the “Serum Free Fatty Acids” value [5] was 870±61 μEq/liter. The “Serum Concentration, Cholesterol” value [5] was 122±10 mg%, the “Serum Concentration, Glucose” value [5] was 159±7 mg% and the “Serum Concentration, Glycerol” value [5] was 2.1±.40 mg%. The “Serum Concentration, Triglycerides” value [5] was 62±13 mg%, the “inhibiting the increase in serum triglycerides induced by olive oil gavage” value [5] was 50-55% and the “reduction of olive oil induced increase in serum cholesterol” value [5] was 14-19%. For the same compound, the “inhibiting the increase in serum triglycerides, compared with fenfluramine” value ([5]; in words) was “comparable to fenfluramine”.
With CCNC(C)Cc1cccc(C(F)(F)F)c1 (centres unmarked) [Fenfluramine, reference compound] the “% Change From Control Value” value (Rats [1]; 5 mg/kg P.O., rats) was -18.7%, the “% Change From Control Value” value (Rats [1]; 10 mg/kg P.O., rats) was -39.3% and the “% Change From Control Value” value (Rats [1]; 20 mg/kg P.O., rats) was -50.5%. The “Calculated ED50 (dose necessary to reduce the intake of food by 50%)” value (Rats [1]; P.O., rats) was 20.7 mg/kg, the ED50 (Rats [1]; P.O., rats) was 20 mg/kg and the “Response Rate (percentage deviation from baseline rate)” value (Rats [6]; [8]) was “+15%”. For the same compound, the “Shock Rate (percentage deviation from baseline rate)” value (Rats [6]; [8]) was -50%, the “effect on performance / behavior” value (Rats [6]) was “amphetamine-like effect on performance” and the “effect on performance in Sidman Avoidance test” value (Rats [6]) was “all doses to be effective in producing significant results; also recorded: results indicative of amphetamine-like compounds”. For the same compound, the “effect on response rate” value (Rats [6]) was “increase in response rate”, the “effect on shock rate” value (Rats [6]) was “decrease in shock rate” and the LD50 (Acute Toxicity in Rats) was 225 mg/kg. For the same compound, the “Mortality Ratio” value (Rats [2]; 0.1 gm/kg P.O.) was 0/6, the “Mortality Ratio” value (Rats [2]; 0.2 gm/kg P.O.) was 2/6 and the “Mortality Ratio” value (Rats [2]; 0.25 gm/kg P.O.) was 4/6. The “Mortality Ratio” value (Rats [2]; 0.3 gm/kg P.O.) was 5/6, the stimulant effects (Mouse) was “stimulant effects” and the “Serum Free Fatty Acids” value [5] was 919±61 μEq/liter. The “Serum Concentration, Cholesterol” value [5] was 140±3 mg%, the “Serum Concentration, Glucose” value [5] was 160±9 mg% and the “Serum Concentration, Glycerol” value [5] was 1.6±.10 mg%. For the same compound, the “Serum Concentration, Triglycerides” value [5] was 61±1 mg%, the “effect on olive oil induced increase in serum cholesterol” value ([5]; in words) was “unaffected” and the “intestinal absorption of triglycerides” value ([7]; Bizzi et al.) was “inhibition of the intestinal absorption of triglycerides”. For the same compound, the plasma triglycerides ([7]; fed, but not fasted, animals, Garattini et al.) was “decrease in plasma triglycerides in fed, but not fasted, animals”, the “concentration of plasma free fatty acids” value ([7]; rats, Bizzi et al.) was “rapid increase” and the “rise in plasma triglycerides after olive oil gavage” value ([7]; several hours after olive oil gavage, prior treatment of rats) was “inhibited”. The “sedative or stimulant action” value (diabetics; Nursing 74) was “acts as a sedative rather than a stimulant”, the “glucose tolerance in diabetics” value (diabetics; Turtle et al.) was “appears to improve glucose tolerance in diabetics” and the undesirable side effects (diabetics; diabetics, Turtle et al.) was “without producing undersirable side effects”. For the same compound, the “post absorption glucose levels” value (diabetics; given before meals, maturity onset and insulin-requiring diabetics, Turtle et al.) was “consistently reduced post absorption glucose levels”.
With CN[C@@H](C)Cc1ccccc1 [Methamphetamine, methamphetamine] the stimulant effects (Mouse) was “stimulant effects”.
In the case of C=COCCNC(C)Cc1ccc(Cl)cc1 (stereo not drawn) [HCl Salt, R=Cl, N-(2-vinyloxyethyl)-α-methyl-β-(4-cholorophenyl) ethylamine hydrochloride], the “% Change From Control Value” value (Rats [1]; 5 mg/kg P.O., rats) is reported as -24.5%, the “% Change From Control Value” value (Rats [1]; 10 mg/kg P.O., rats) is reported as -53.5% and the “% Change From Control Value” value (Rats [1]; 20 mg/kg P.O., rats) is reported as -87.3%. The “potency compared with fenfluramine” value (Rats [1]) was “considerably more potent”, the ED50 (Rats [1]; P.O., rats) was 7.7 mg/kg and the “Relative Potency” value (Rats [1]) was 2.5. For the same compound, the “potency relative to fenfluramine (times)” value (Rats [1]; rats, P.O.) was “approximately 2.5 times”, the “Shock Rate (percentage deviation from baseline rate)” value (Rats [6]; [8]) was -55% and the “effect on performance / behavior” value (Rats [6]) was “did not significantly affect behavior except for the parameter of shock rate which was reduced”. For the same compound, the “effect on performance in Sidman Avoidance test” value (Rats [6]) was “did not affect performance significantly overall”, the “effect on response rate” value (Rats [6]) was “response rate remaining stable” and the “effect on shock rate” value (Rats [6]) was “sharp decrease in shock rate”. The LD50 (Acute Toxicity in Rats) was 950 mg/kg, the “Mortality Ratio” value (Rats [2]; 0.25 gm/kg P.O.) was 0/6 and the “Mortality Ratio” value (Rats [2]; 0.5 gm/kg P.O.) was 1/6. The “Mortality Ratio” value (Rats [2]; 1.0 gm/kg P.O.) was 3/6, the “Mortality Ratio” value (Rats [2]; 1.25 gm/kg P.O.) was 4/6 and the “Mortality Ratio” value (Rats [2]; 1.50 gm/kg P.O.) was 5/6. The “Mortality Ratio” value (Rats [2]; 2.00 gm/kg P.O.) was 6/6, the “toxicity compared with fenfluramine” value (Rats [2]) was “considerably less toxic than fenfluramine” and the “toxicity relative to fenfluramine” value (Rats [2]) was “approximately four times less toxic than fenfluramine”. The solubility in water [3] was “soluble in water”, the stimulatory effect (Mouse; high doses (300-1000 mg/kg)) was “only a weak stimulatory effect” and the stimulating properties [4] was “minimum stimulating properties”. For the same compound, the “Serum Free Fatty Acids” value [5] was 780±66 μEq/liter, the “Serum Concentration, Cholesterol” value [5] was 116±8 mg% and the “Serum Concentration, Glucose” value [5] was 159±1 mg%. The “Serum Concentration, Glycerol” value [5] was 1.8±.30 mg%, the “Serum Concentration, Triglycerides” value [5] was 62±7 mg% and the “inhibiting the increase in serum triglycerides induced by olive oil gavage” value [5] was 50-55%. For the same compound, the “reduction of olive oil induced increase in serum cholesterol” value [5] was 14-19% and the “inhibiting the increase in serum triglycerides, compared with fenfluramine” value ([5]; in words) was “comparable to fenfluramine”.
